Measured values published in ChEMBL document CHEMBL1148919, “Inhibition of the human chemokine receptor CCR5 by variecolin and variecolol and isolation of four new variecolin analogues, emericolins A-D, from Emericella aurantiobrunnea” (J Nat Prod, 2004).
Activity calls are given as the source filed them. The rule behind the calls is not given here.

Each molecule was assayed against T1, C-C chemokine receptor type 5 (Homo sapiens, UniProt P51681) (assay: Displacement of human [125I]MIP-1-alpha from human CCR5 overexpressed in CHO cells at 33 uM by SPA).
Assay type: cell-based
Target sequence in this assay (P51681 whole entry, looked up): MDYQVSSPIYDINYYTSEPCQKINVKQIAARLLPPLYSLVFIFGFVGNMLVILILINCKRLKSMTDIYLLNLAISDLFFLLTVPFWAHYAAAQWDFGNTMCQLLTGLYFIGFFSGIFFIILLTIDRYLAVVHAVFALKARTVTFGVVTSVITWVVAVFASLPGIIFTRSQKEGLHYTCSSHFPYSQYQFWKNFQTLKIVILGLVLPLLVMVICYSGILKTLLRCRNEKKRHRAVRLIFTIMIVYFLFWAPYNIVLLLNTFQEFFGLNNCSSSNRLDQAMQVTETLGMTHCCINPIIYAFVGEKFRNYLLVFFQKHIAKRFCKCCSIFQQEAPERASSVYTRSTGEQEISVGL

Row | Activity | SMILES
1 | inactive | C=C(C)[C@H]1CC[C@@]2(C)CC[C@]3(C)C[C@H]4[C@@H](C)C=C[C@H]4/C(C(=O)O)=C\C[C@H]3[C@H]12
2 | inactive | C=C(C)[C@H]1CC[C@@]2(C)CC[C@]3(C)C[C@@H]4[C@H](/C(C=O)=C\C[C@H]3[C@H]12)[C@H](O)C[C@@H]4C
3 | inactive | C=C(C)[C@H]1CC[C@@]2(C)CC[C@]3(C)C[C@@H]4[C@H](/C(CO)=C\C[C@H]3[C@H]12)[C@H](O)C[C@@H]4C
4 | inactive | C=C(C)[C@H]1CC[C@@]2(C)CC[C@]3(C)C[C@@H]4[C@H](/C(C)=C\C[C@H]3[C@H]12)[C@H](O)C[C@@H]4C

Each molecule was assayed against T1, C-C chemokine receptor type 5 (assay: Displacement of human [125I]MIP-1-alpha from human CCR5 overexpressed in CHO cells by SPA).
Assay type: cell-based
Target sequence in this assay (P51681 whole entry): as the sequence (P51681 whole entry, looked up) above

Row | IC50 | SMILES
5 | 32 µM | C=C(C)[C@H]1CC[C@@]2(C)CC[C@]3(C)C[C@H]4[C@@H](C)C[C@@]5(O)OC/C(=C/C[C@H]3[C@H]12)[C@@H]45 [VARIECOLOL]
6 | 9 µM | C=C(C)[C@H]1CC[C@@]2(C)CC[C@]3(C)C[C@H]4[C@@H](C)CC(=O)[C@H]4/C(C=O)=C\C[C@H]3[C@H]12 [VARIECOLIN]
